# Patent US7868004B2, “Menthane carboxamide derivatives having cooling properties” (Givaudan S.A., priority 2005, dated 2011)
# Key:
# Format in all cases: in vivo
# panelists = experiment: experiment on cooling intensity: panelists taste solutions and compare with menthol at 2 ppm; details: tasted by a small group of panelists; reference menthol at 2 ppm
# mouth [1] = experiment: Application in mouthwash: cooling perception in the mouth; details: mouthwash with 10 mL of 1% solution in alcohol per liter, 30 mL swished, gargled and spit out
# Protocol: [table] All the ingredients are mixed. 30 mL of obtained solution is put in the mouth, swished around, gargled and spit out. […] The cooling perception lasts for several hours
# mouth [2] = experiment: Application in toothpaste: cooling perception in the mouth; details: toothgel with 1.500 g of 2% solution in PG per 100 g, teeth brushed, mouth rinsed with water
# Text: [table] The chemicals are mixed in the toothgel, a piece of toothgel is put on a toothbrush and a panelist's teeth are brushed. The mouth is rinsed with water and the water is spit out. […] The cooling perception lasts for several hours.
SMILES,Concentration of solution having a cooling intensity similar or slightly higher than that of a solution of menthol at 2 ppm (panelists) [ppm],also measured
"CC1CCC(C(C)C)C(C(=O)Nc2ccc(-c3cnco3)cc2)C1 (stereo not shown) [Example 5, N-4-(oxazol-5-yl)-phenyl-3-p-menthanecarboxamide]",0.5,–
"CC1CCC(C(C)C)C(C(=O)Nc2cccc3ocnc23)C1 (stereo not shown) [Example 1, N-benzooxazol-4-yl 3-p-menthanecarboxamide]",0.02,duration of cooling perception (mouth [1]): several hours; cooling sensation (mouth [1]; every area of the mouth and lips): intense cooling
"CC1CCC(C(C)C)C(O)C1 (stereo not shown) [Example 1-Menthol, 1-Menthol, reference compound]",2.0,–
CC1CCC(C(C)C)C(C(=O)Nc2ccc(-n3cccn3)cc2)C1 (stereo not shown) [N-4-(pyrazol-1-yl)-phenyl-3-p-menthanecarboxamide],0.02,–
"CC1CCC(C(C)C)C(C(=O)Nc2ccc(-n3cncn3)cc2)C1 (stereo not shown) [Example 4, N-4-([1,2,4]triazol-1-yl)-phenyl-3-p-menthanecarboxamide]",0.02,–
CC1CCC(C(C)C)C(C(=O)Nc2ccc(N3CCOCC3)cc2)C1 (stereo not shown) [N-4-(morpholin-4-yl)-phenyl 3-p-menthanecarboxamide],0.2,–
"CC1CCC(C(C)C)C(C(=O)Nc2ccc3ncsc3c2)C1 (stereo not shown) [Example 3, N-benzothiazol-6-yl menthanecarboxamide]",0.3,–
"CC1CCC(C(C)C)C(C(=O)Nc2ccc3c(c2)OCO3)C1 (stereo not shown) [N-benzo[1,3]dioxol-5-yl-3-p-menthanecarboxamide]",0.02,–
"CC1CCC(C(C)C)C(C(=O)Nc2cccc(-c3cnco3)c2)C1 (stereo not shown) [Example 6, N-3-(oxazol-5-yl)-phenyl-3-p-menthanecarboxamide]",0.1,duration of cooling perception (mouth [2]): several hours; cooling sensation (mouth [2]; all areas of the mouth): intense cooling sensation
